Laboratory results: ChEMBL document CHEMBL1201862, “PubChem BioAssay data set” (2004)
The source made the active and inactive calls.

Assays:
Large T antigen = Large T antigen (Simian virus 40, UniProt P03070); type: functional, Betapolyomavirus macacae;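 also: Confirmatory-stage PubChem screen for compounds that inhibit SV40 T antigen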
[1] = molecular target: Intestinal-type alkaline phosphatase (Mus musculus, UniProt P24822); experiment: mouse intestinal alkaline phosphatase activators, dose response, biochemical, luminescence, uHTS hits (AID 488783); type: functional
HeLa = experiment: viability loss in HeLa cells – cell-based, 24 h, cherry-picked samples, cytotoxicity control, dose response (AID 504726); type: functional; details: Homo sapiens;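 also: potency for cytotoxicity as loss of luminescence signal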
ORF 73 = ORF 73 (Human herpesvirus 8, UniProt O40947); experiment: KSHV LANA DNA-binding disruption – biochemical, fluorescence polarization, cherry-picked samples, dose response (AID 504725); parameters: species or system Human gammaherpesvirus 8;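 also: fluorescence polarization of a labeled DNA duplex reporting LANA DNA binding; potency is for inhibitors that block LANA binding to the DNA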
[2] = molecular target: T1, Alkaline phosphatase, tissue-nonspecific isozyme (Homo sapiens, UniProt P05186); experiment: activation of tissue-nonspecific alkaline phosphatase – biochemical, TNAP isozyme, mouse IAP uHTS hits, selectivity assay for mouse IAP activator project, dose response (AID 488880); type: functional
T1 sequence (P05186 whole entry): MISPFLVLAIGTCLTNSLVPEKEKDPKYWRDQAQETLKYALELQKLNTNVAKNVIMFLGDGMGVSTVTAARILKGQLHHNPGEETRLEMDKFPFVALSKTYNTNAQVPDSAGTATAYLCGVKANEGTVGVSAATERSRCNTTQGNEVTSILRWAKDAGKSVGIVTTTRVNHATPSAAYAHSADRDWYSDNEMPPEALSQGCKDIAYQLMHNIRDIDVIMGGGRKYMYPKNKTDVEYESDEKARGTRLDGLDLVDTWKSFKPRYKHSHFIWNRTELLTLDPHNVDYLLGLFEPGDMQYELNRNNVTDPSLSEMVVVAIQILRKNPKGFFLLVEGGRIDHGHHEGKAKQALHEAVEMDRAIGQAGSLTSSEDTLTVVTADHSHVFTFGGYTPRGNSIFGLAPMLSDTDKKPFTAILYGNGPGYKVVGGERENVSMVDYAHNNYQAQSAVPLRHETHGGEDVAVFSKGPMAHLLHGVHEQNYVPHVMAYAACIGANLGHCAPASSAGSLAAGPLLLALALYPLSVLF

[3] = molecular target: Bifunctional protein GlmU (Mycobacterium tuberculosis, UniProt P9WMN3); experiment: Inhibitors of Mycobacterial Glucosamine-1-phosphate acetyl transferase (GlmU). Secondary screen.; parameters: species or system Mycobacterium tuberculosis H37Rv
Cysteine protease ATG4B = molecular target: T2, Cysteine protease ATG4B (Homo sapiens, UniProt Q9Y4P1); type: functional;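 also: Fluorescence-based dose-response confirmation assay measuring inhibition of ATG4B activity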
T2 sequence (Q9Y4P1 whole entry): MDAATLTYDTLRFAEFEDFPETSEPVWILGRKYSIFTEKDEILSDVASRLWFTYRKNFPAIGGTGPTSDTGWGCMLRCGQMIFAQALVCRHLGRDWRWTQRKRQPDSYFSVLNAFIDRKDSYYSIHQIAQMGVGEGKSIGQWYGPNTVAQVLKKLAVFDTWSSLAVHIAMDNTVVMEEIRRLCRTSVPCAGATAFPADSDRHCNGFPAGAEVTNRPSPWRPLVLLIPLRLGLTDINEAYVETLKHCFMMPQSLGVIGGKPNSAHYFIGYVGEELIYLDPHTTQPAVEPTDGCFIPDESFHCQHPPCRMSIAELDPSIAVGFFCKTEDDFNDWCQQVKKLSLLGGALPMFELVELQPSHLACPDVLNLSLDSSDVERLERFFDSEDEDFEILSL

Aminopeptidase N = molecular target: T3, Aminopeptidase N (Plasmodium falciparum FcB1/Columbia, UniProt O96935); experiment: malaria alanyl aminopeptidase activity blockers – biochemical, fluorogenic H-Leu-NHMec substrate, 1536-well (AID 1445); parameters: species or system Plasmodium falciparum 3D7, 3D7
T3 sequence (O96935 whole entry): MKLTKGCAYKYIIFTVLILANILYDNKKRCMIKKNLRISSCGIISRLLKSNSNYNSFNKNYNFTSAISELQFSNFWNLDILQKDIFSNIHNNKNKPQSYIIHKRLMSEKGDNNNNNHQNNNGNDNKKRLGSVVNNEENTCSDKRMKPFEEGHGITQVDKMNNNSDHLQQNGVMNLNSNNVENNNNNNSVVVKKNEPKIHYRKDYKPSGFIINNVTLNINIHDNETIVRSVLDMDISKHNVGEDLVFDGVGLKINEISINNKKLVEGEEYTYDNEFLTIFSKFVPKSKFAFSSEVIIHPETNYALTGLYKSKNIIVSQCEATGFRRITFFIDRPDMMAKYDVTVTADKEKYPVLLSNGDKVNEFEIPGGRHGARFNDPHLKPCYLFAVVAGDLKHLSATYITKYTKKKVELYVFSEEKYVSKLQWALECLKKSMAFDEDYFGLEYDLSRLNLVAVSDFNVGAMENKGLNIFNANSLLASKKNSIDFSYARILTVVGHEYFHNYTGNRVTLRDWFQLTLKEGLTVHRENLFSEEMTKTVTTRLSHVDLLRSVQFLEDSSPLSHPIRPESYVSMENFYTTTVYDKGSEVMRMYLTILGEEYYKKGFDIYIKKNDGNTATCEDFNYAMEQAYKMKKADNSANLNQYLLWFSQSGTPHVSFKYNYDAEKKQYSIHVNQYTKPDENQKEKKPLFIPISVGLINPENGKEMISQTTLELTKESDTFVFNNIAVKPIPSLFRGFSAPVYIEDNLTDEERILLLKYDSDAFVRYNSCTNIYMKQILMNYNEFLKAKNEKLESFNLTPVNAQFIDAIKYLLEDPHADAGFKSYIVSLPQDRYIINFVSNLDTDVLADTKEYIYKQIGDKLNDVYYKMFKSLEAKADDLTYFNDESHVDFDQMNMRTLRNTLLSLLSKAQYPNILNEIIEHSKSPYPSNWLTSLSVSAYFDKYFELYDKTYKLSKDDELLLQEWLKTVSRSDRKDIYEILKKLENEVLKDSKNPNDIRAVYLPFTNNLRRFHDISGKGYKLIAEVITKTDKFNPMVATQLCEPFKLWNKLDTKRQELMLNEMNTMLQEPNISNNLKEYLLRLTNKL

[4] = molecular target: Guanyl-specific ribonuclease T1 (Aspergillus oryzae (strain ATCC 42149 / RIB 40), UniProt P00651); experiment: inhibition of ribonuclease T1 activity – biochemical, fluorescence polarization, 1536-well, counter-screen for TPT1 inhibitor project, dose response (AID 2167)
[5] = molecular target: Likely tRNA 2'-phosphotransferase (Candida albicans (strain SC5314 / ATCC MYA-2876) (Yeast), UniProt Q5A7N4); experiment: inhibition of Candida TPT1 enzyme activity – biochemical, fluorescence polarization, dose response (AID 2160)
Phospholipase A2 = Phospholipase A2 (Homo sapiens, UniProt P04054); type: functional;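 also: confirmatory dose-response counterscreen on phospholipase A2, testing hits that came from an ultra-high-throughput screen for ATG4B inhibitors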
[6] = molecular target: Intestinal-type alkaline phosphatase (Homo sapiens, UniProt P09923); experiment: activation of human intestinal alkaline phosphatase – biochemical, dose response (AID 488873); type: functional
[7] = molecular target: T4, Calpain-2 catalytic subunit (Sus scrofa, UniProt P43367); experiment: m-calpain protease blockers, concentration series – biochemical, fluorogenic peptide substrate, dose response (AID 1420); type: functional
T4 sequence (P43367 whole entry): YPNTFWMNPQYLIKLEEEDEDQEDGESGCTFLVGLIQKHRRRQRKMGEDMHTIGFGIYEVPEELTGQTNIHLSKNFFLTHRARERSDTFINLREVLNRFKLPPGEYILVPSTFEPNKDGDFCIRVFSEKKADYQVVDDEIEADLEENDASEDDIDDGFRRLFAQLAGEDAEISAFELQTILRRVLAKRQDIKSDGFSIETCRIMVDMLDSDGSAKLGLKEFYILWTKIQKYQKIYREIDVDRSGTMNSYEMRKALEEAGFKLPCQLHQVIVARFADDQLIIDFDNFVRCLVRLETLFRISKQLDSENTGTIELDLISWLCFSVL

[8] = molecular target: Induced myeloid leukemia cell differentiation protein Mcl-1 (Homo sapiens, UniProt Q07820); type: functional
[9] = molecular target: Glyceraldehyde-3-phosphate dehydrogenase (Homo sapiens, UniProt P04406)
[10] = molecular target: T5, Tyrosine-protein phosphatase non-receptor type 7 (Homo sapiens, UniProt P35236); type: functional
T5 sequence (P35236 whole entry): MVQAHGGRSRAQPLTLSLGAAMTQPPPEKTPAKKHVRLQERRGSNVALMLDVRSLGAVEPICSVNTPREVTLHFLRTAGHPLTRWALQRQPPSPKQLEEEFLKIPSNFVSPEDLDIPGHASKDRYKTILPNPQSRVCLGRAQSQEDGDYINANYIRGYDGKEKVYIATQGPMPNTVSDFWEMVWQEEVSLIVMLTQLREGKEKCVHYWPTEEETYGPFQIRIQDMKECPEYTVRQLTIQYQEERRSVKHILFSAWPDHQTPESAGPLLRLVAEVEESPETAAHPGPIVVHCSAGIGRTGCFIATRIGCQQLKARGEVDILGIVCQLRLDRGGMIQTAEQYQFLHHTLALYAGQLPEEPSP

[11] = molecular target: T6, Dual specificity protein phosphatase 6 (Rattus norvegicus, UniProt Q64346)
T6 sequence (Q64346 whole entry): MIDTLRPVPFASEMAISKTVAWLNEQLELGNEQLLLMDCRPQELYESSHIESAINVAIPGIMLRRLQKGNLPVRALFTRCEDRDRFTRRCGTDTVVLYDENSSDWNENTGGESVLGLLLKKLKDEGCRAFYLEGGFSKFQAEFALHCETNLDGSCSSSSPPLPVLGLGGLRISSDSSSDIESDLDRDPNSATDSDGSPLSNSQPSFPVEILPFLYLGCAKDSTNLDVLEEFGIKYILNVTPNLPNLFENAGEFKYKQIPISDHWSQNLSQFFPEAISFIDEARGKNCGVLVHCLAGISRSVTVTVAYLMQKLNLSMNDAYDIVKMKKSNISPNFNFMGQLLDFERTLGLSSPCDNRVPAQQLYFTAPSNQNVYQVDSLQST

[12] = molecular target: T7, Dual specificity protein phosphatase 3 (Homo sapiens, UniProt P51452); experiment: SAR VHR1 Fluorescent Assay for In Vitro dose response studies. [Related pubchem assays (depositor defined):AID1654, AID1661, AID1878, AID1992, AID2004, AID2070, AID2085]; type: functional
[13] = molecular target: T7, Dual specificity protein phosphatase 3; experiment: MOA VHR1 Fluorescent secondary assay for identification of redox-state modulating compounds. [Related pubchem assays (depositor defined):AID1654, AID1661, AID1878, AID1957]
[14] = molecular target: T5, Tyrosine-protein phosphatase non-receptor type 7; experiment: redox-active compounds inhibiting HePTP phosphatase – biochemical, fluorescence, mechanism study (AID 2068); type: functional
[15] = molecular target: T6, Dual specificity protein phosphatase 6; type: functional
[16] = molecular target: Delta-type opioid receptor (Homo sapiens, UniProt P41143); experiment: SAR Analysis of Antagonists of the DOR Receptor using an Image-Based Assay - Set 3. [Related pubchem assays (depositor defined):AID1777, AID1785]; type: functional;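 also: U2OS cells expressing DOR1 and beta-arrestin GFP stimulated with 100 nM SNC80; imaging of GFP-tagged beta-arrestin moving into spots after receptor activation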
[17] = molecular target: T8, Kappa-type opioid receptor (Homo sapiens, UniProt P41145); experiment: SAR analysis of Antagonists of the Kappa Opioid Receptor (KOR) using an Image-Based Assay - Set 4. [Related pubchem assays (depositor defined):AID1777, AID1785]; type: functional
Mu-type opioid receptor = Mu-type opioid receptor (Homo sapiens, UniProt P35372); experiment: SAR Analysis of Antagonists of the MOR Receptor using an Image-Based Assay - Set 3. [Related pubchem assays (depositor defined):AID1777, AID1785, AID1786, AID1966, AID2133, AID2136, AID2284, AID2285, AID2420]; type: functional
[18] = molecular target: T8, Kappa-type opioid receptor; experiment: SAR analysis of small molecule antagonists of the kappa opioid receptor via a luminescent beta-arrestin assay - Set 4. [Related pubchem assays (depositor defined):AID1777, AID1778, AID1785, AID1786, AID1966, AID2133, AID2136, AID2285]; type: functional

T8 sequence (P41145 whole entry): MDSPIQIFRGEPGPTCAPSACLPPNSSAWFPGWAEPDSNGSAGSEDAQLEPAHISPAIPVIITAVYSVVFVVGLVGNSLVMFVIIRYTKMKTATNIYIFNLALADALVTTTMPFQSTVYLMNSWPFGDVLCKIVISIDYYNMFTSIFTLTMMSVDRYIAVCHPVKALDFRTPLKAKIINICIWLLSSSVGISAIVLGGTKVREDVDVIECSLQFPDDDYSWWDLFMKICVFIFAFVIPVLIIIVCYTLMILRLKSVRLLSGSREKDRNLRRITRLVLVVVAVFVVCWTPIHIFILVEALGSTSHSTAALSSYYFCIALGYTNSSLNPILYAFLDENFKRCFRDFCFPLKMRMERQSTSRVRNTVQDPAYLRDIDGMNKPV
T7 sequence (P51452 whole entry): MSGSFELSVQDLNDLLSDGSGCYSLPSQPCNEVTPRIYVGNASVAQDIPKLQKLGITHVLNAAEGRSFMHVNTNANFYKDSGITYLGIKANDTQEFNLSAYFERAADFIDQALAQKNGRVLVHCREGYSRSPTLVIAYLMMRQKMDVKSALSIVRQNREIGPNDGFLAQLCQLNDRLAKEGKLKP
Sequence of Likely tRNA 2'-phosphotransferase (Q5A7N4 whole entry): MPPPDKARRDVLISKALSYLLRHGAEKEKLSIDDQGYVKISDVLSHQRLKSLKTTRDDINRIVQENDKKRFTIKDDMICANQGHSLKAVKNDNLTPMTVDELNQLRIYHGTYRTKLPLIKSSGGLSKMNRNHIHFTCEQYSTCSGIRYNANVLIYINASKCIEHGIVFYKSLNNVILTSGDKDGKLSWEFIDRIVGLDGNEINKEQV
Sequence of Glyceraldehyde-3-phosphate dehydrogenase (P04406 whole entry): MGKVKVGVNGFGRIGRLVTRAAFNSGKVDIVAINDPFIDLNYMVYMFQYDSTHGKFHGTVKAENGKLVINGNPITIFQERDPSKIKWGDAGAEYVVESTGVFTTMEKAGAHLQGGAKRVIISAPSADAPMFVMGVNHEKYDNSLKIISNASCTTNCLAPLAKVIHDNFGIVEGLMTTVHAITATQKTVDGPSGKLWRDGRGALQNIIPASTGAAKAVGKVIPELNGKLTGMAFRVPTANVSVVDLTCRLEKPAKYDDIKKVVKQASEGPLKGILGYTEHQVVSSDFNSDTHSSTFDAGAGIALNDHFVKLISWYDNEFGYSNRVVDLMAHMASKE
Sequence of Bifunctional protein GlmU (P9WMN3 whole entry): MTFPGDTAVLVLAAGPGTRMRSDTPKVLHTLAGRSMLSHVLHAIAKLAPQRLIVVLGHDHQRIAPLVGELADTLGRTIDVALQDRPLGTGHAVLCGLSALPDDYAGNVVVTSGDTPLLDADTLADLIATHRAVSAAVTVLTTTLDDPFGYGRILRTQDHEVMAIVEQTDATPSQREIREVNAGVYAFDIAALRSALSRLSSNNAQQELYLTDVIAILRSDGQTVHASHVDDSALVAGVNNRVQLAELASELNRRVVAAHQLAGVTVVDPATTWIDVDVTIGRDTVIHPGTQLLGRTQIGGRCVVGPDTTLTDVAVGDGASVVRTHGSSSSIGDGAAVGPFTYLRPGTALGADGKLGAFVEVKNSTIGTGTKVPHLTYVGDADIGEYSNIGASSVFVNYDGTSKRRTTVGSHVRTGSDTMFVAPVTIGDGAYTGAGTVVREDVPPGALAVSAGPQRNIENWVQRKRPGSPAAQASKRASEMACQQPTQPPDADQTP
Sequence of ORF 73 (O40947 whole entry): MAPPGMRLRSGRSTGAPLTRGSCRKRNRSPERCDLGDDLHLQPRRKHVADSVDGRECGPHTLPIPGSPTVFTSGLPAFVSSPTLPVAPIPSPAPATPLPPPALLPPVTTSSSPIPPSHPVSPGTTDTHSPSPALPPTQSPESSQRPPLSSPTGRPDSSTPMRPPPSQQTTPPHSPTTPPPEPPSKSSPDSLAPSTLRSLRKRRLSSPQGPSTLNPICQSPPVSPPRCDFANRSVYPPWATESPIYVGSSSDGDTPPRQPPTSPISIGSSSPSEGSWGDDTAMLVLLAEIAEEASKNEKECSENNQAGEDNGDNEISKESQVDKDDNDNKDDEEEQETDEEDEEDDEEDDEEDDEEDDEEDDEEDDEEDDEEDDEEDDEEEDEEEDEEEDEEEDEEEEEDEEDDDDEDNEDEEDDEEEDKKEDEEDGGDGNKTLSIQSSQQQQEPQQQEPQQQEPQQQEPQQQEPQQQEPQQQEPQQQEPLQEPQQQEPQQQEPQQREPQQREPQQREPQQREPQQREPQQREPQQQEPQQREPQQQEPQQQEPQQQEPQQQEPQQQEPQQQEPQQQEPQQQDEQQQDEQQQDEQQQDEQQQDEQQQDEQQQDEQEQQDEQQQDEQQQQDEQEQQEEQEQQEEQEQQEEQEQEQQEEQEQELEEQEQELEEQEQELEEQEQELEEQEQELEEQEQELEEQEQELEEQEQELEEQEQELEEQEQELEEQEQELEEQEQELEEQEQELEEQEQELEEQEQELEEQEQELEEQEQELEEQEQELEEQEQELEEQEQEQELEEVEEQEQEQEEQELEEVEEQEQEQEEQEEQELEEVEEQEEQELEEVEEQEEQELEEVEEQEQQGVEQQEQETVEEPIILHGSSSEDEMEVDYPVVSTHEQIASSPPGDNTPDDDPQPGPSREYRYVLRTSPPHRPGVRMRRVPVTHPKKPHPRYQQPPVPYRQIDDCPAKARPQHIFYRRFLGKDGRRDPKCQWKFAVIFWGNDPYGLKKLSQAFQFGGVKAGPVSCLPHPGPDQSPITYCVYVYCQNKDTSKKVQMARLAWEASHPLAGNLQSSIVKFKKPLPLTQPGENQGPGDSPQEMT
Sequence of Induced myeloid leukemia cell differentiation protein Mcl-1 (Q07820 whole entry): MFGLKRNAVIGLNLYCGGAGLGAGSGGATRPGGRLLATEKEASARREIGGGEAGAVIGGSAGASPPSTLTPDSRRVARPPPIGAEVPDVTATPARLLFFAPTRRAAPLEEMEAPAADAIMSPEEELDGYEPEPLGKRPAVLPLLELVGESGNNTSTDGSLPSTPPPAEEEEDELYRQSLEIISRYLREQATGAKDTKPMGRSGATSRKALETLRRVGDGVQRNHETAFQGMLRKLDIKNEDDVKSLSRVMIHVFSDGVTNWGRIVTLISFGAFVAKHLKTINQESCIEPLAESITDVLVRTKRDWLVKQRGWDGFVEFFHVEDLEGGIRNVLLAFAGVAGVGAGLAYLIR
Sequence of Intestinal-type alkaline phosphatase (Homo sapiens, UniProt P09923) (P09923 whole entry): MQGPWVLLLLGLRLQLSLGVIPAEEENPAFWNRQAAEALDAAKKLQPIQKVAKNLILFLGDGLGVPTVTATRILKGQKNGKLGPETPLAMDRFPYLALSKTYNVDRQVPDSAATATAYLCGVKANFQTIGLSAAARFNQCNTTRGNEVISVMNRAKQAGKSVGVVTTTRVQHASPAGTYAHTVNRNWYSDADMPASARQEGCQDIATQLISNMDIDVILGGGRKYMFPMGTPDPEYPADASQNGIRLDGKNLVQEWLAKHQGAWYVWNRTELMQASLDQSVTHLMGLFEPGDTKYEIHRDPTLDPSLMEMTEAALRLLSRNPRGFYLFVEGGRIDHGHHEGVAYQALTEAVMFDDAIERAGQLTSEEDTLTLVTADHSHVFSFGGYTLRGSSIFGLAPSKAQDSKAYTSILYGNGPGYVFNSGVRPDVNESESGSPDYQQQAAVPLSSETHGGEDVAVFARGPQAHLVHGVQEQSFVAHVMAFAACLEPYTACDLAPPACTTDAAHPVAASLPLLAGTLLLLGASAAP
Sequence of Large T antigen (P03070 whole entry): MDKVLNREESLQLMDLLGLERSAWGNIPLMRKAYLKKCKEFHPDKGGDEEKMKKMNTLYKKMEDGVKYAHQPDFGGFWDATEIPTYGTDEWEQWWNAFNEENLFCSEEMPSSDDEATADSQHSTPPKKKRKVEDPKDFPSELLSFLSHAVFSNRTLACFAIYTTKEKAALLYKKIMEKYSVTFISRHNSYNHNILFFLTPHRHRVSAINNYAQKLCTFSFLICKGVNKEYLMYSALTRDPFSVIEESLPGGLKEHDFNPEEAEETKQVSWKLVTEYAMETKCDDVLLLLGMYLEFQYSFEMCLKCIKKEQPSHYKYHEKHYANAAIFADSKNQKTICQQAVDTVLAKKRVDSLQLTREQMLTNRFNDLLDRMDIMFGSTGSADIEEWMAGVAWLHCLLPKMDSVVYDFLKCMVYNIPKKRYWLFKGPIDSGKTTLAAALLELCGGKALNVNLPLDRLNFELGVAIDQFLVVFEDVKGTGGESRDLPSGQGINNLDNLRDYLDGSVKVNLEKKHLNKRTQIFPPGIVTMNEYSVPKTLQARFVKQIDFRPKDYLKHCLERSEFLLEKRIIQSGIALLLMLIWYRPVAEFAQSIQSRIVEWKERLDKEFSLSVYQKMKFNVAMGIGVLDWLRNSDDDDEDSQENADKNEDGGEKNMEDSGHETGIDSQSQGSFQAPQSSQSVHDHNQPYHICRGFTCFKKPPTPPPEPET
Sequence of Mu-type opioid receptor (P35372 whole entry): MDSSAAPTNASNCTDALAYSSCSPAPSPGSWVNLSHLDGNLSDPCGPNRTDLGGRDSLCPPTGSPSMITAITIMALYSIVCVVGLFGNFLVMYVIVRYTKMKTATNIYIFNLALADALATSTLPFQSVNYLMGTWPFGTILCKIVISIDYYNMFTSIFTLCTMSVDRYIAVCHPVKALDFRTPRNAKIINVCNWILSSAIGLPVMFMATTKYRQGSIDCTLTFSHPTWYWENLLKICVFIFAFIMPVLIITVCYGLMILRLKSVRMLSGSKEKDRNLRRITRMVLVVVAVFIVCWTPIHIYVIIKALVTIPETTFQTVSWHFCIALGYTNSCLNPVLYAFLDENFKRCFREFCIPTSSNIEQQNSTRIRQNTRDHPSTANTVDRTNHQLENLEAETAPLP
Sequence of Guanyl-specific ribonuclease T1 (P00651 whole entry): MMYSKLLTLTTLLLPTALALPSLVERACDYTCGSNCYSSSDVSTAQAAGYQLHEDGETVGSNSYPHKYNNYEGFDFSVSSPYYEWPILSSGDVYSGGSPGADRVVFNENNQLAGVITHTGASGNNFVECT

## O=C1/C(=C/C=C/c2ccco2)SC(=S)N1NS(=O)(=O)c1ccccc1
Large T antigen
  IC50: 25.4 µM (active)
[1]
  EC50: 3.13 µM (active)
HeLa
  AC50: > 350 µM (inactive)
ORF 73
  AC50: 177 µM (active)
[2]
  EC50: > 100 µM (inactive)
[3]
  IC50: 49.6 µM (active)
Cysteine protease ATG4B
  IC50: 7.13 µM (active)
Aminopeptidase N
  IC50: 22.6 µM (active)
[4]
  IC50: 18.5 µM (not active)
[5]
  IC50: 20.8 µM (not active)
Phospholipase A2
  IC50: 13 µM (active)
[6]
  EC50: > 100 µM (inactive)
[7]
  IC50: 8.28 µM (not active)
[8]
  IC50: 3.1 µM (active)

## O=C(O)c1ccc(-c2ccc(/C=c3\sc4nc5ccccc5n4c3=O)o2)cc1
[9]
  IC50: > 100 µM (not active)
[10]
  IC50: 3.26 µM (active)
[11]
  IC50: 8.6 µM (active)
[12]
  IC50: 33.5 µM (active)
[13]
  IC50: 6.21 µM (active)
[14]
  IC50: 5.78 µM (active)
[15]
  IC50: 6.59 µM (active)

## Cc1ccc(S(=O)(=O)N2CCc3ccc(C(=O)NCCN(Cc4ccccc4)C(C)C)cc3C2)cc1
[16]
  IC50: > 32 µM (inactive)
[17]
  IC50: > 32 µM (inactive)
Mu-type opioid receptor
  IC50: 2.89 µM (active)
[18]
  IC50: 10.2 µM (inactive)
